Laboratory results as given in PubChem BioAssay (NCI).
Where “and” joins values, the source holds several entries; their conditions need not be identical. Equal values may be shown once.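 Method: 48-hour compound exposure of cells in 96-well plates, five concentrations, linear interpolation of endpoints. GI50: concentration for 50% inhibition of growth. At the TGI there is no net growth.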

How the values were obtained:
Experiment in all cases: growth of human tumour cells (NCI), 48 h
SK-OV-3 ovarian = system: SK-OV-3 ovarian
MCF7 breast = system: MCF7 breast
OVCAR-4 ovarian = system: OVCAR-4 ovarian
RPMI-8226 leukemia = system: RPMI-8226 leukemia
U251 CNS = system: U251 CNS
OVCAR-8 ovarian = system: OVCAR-8 ovarian
SF-295 CNS = system: SF-295 CNS
SNB-75 CNS = system: SNB-75 CNS
NCI-H226 lung = system: NCI-H226 lung
UACC-62 melanoma = system: UACC-62 melanoma

SMILES | GI50 (SK-OV-3 ovarian) | TGI (SK-OV-3 ovarian) | GI50 (MCF7 breast) [µM] | TGI (MCF7 breast) [µM] | GI50 (OVCAR-4 ovarian) | TGI (OVCAR-4 ovarian) | GI50 (RPMI-8226 leukemia) | TGI (RPMI-8226 leukemia) | GI50 (U251 CNS) [µM] | TGI (U251 CNS) | GI50 (OVCAR-8 ovarian) | TGI (OVCAR-8 ovarian) | GI50 (SF-295 CNS) | TGI (SF-295 CNS) | GI50 (SNB-75 CNS) | TGI (SNB-75 CNS) | GI50 (NCI-H226 lung) | TGI (NCI-H226 lung) | GI50 (UACC-62 melanoma) | TGI (UACC-62 melanoma)
COc1ccc(C(=O)COc2cccc(/C=C3\CSc4ccccc4C3=O)c2)cc1 | 10.8 µM | 45.7 µM | 0.537 | 2.22 | 2.79 µM | 9.87 µM | 0.342 µM | 3.69 µM | 1.57 | 2.99 µM | 2.65 µM | 6.71 µM | 1.87 µM | 3.77 µM | 4.85 µM | 18.4 µM | 4.63 µM | 14.9 µM | 1.72 µM | 3.3 µM
NC(=NC1CCCCCCC1)c1ccc(N2CCN(c3ccc(C(N)=NC4CCCCCCC4)cc3)CC2)cc1 | 15.2 µM | 34.9 µM | 5.77 | > 100 | 24.6 µM | > 100 µM | 25.8 µM | > 100 µM | 2.96 | 15.3 µM | 4.9 µM | 30 µM | 2.04 µM | 6.09 µM | 3.7 µM | 15.7 µM | 11.5 µM | 39.1 µM | 12.6 µM | 28.3 µM
O=C1/C(=C/c2ccccc2F)CNC/C1=C\c1ccccc1F | 1.68 µM and 1.58 µM | 4.01 µM and 3.12 µM | 0.305 | 1.39 | 0.596 µM and 0.385 µM | 2.98 µM and 1.81 µM | 0.191 µM and 0.22 µM | 0.697 µM and 0.563 µM | 0.165 | 0.362 µM and 0.372 µM | 0.338 µM and 0.369 µM | 4.27 µM and 2.91 µM | 0.707 µM and 0.531 µM | 3.5 µM and 1.71 µM | 2 µM and 1.54 µM | 4.74 µM and 4.33 µM | 3.15 µM and 1.46 µM | 10.7 µM and 3.91 µM | 6.38 µM and 1.5 µM | 10.3 µM and 3.72 µM
COc1ccc(-c2cnnn2-c2cc(OC)c3c(c2)OCO3)cc1 | 0.348 µM | > 100 µM | 0.0463 | > 100 | 5.9 µM | > 100 µM | 0.256 µM | > 100 µM | 0.231 | > 100 µM | 0.304 µM | > 100 µM | 0.0585 µM | > 100 µM | 0.0741 µM | > 100 µM | 5.71 µM | > 100 µM | 0.235 µM | > 100 µM
C/C(=C\c1ccn(-c2ccc(N)c(F)c2)n1)[C@@H]1C[C@@H]2O[C@]2(C)CCC[C@H](C)[C@H](O)[C@@H](C)C(=O)C(C)(C)[C@@H](O)CC(=O)O1 | 0.0262 µM | > 50 µM | 0.00601 | > 50 | 0.0964 µM | > 50 µM | 0.00955 µM | > 25.4 µM | < 0.005 | > 50 µM | 0.0239 µM | > 50 µM | 0.0205 µM | > 50 µM | < 0.005 µM | 0.0725 µM | 7.99 µM | > 50 µM | 0.0517 µM | > 50 µM
C=C(C)[C@@H]1CC[C@]2(C(=O)NCCNCCNCCN)CC[C@]3(C)[C@H](CC[C@@H]4[C@@]5(C)CC[C@H](O)C(C)(C)[C@@H]5CC[C@]43C)[C@@H]12 | 17.5 µM | 36.9 µM | 13.2 | 29.3 | 14.1 µM | 33 µM | 2.81 µM | 27.6 µM | 12.7 | 27.1 µM | 18.8 µM | 47.1 µM | 13.8 µM | 30.3 µM | 11.1 µM | 27.6 µM | 15.5 µM | 40.4 µM | 9.29 µM | 23 µM
N#Cc1c(N)nc(N2CCOCC2)c(C#N)c1-c1ccc(Cl)cc1 | 47.2 µM | > 100 µM | 23.2 | > 100 | 29.8 µM | > 100 µM | 26.5 µM | > 100 µM | 38.3 | > 100 µM | 28 µM | > 100 µM | 44.8 µM | > 100 µM | 14.5 µM | 55.9 µM | 50.4 µM | > 100 µM | 23 µM | > 100 µM
Cn1c(=O)c(Oc2ccc(F)cc2F)cc2cnc(NC(CO)CO)nc21 | > 25 µM | > 25 µM | > 25 | > 25 | > 25 µM | > 25 µM | > 25 µM | > 25 µM | > 25 | > 25 µM | > 25 µM | > 25 µM | > 25 µM | > 25 µM | > 25 µM | > 25 µM | > 25 µM | > 25 µM | > 25 µM | > 25 µM
NC(=O)c1cc([N+](=O)[O-])c(Cl)c([N+](=O)[O-])c1 | 16.9 µM | 30.6 µM | 1.97 | 4.06 | 1.91 µM | 3.9 µM | 2.32 µM | 5.7 µM | 2.31 | 5.61 µM | 1.87 µM | 3.63 µM | 17.3 µM | 31.9 µM | 4.63 µM | 17.8 µM | 1.68 µM | 3.22 µM | 2.43 µM | 7.13 µM
O=C1/C(=C/c2ccc([N+](=O)[O-])o2)Oc2ccc(Br)cc21 | 17.6 µM | 32.2 µM | 2.05 | 5.17 | 2.37 µM | 6.18 µM | 2.32 µM | 6.03 µM | 14.9 | 28.7 µM | 3.01 µM | 9.32 µM | 17.1 µM | 36.8 µM | 15.2 µM | 52.9 µM | 2.12 µM | 5.37 µM | 1.84 µM | 4.09 µM
c1cc(CCN2CCCCC2)ccn1 |  | > 100 µM |  | > 100 |  | > 100 µM |  | > 100 µM |  | > 100 µM |  | > 100 µM |  | > 100 µM |  | > 100 µM |  | > 100 µM |  | > 100 µM
CCCCCCCCCCC(O)[C@H]1CCC(C2CC[C@H]([C@H](O)CCCCCCCCCCC(O)CC3=CC(C)OC3=O)O2)O1 (stereo partly specified) |  | 15.7 µM |  | 4.44 |  | 11.7 µM | 0.615 µM | 3.2 µM | 3.58 | > 100 µM | 2.29 µM | 2.8 µM and 18.4 µM | 0.29 µM | 14.1 µM | 2.25 µM | 5.08 µM and 5.94 µM |  | 2.57 µM and 3.36 µM | 1.97 µM | 4.03 µM and 14.2 µM
COc1ccc(C/C(C)=C(\c2ccc(OCCN3CCOCC3)cc2)c2ccc(OC(=O)Cc3ccccc3)cc2)cc1 | 0.978 µM | 4.45 µM | 0.574 | 1.54 | 1.03 µM | 10.2 µM | 0.531 µM | 1.31 µM | 0.501 | 0.965 µM | 1.07 µM | 11.3 µM | 0.58 µM | 1.12 µM | 0.692 µM | 4.47 µM | 0.691 µM | 2.38 µM | 0.527 µM | 1.06 µM
N#Cc1cccc(C(=O)Nc2cccc(NC(=O)c3cccc(C#N)c3)c2)c1 | > 100 µM | > 100 µM | 90.9 | > 100 | > 100 µM | > 100 µM | 52 µM | > 100 µM | 69.3 | > 100 µM | 47.3 µM | > 100 µM | > 100 µM | > 100 µM | > 100 µM | > 100 µM | 49.1 µM | > 100 µM | 34.1 µM | > 100 µM
O=C1Nc2ccccc2C1Cc1ccc([N+](=O)[O-])cc1 (stereo unspecified) |  | > 100 µM |  | > 100 |  | > 100 µM |  | > 100 µM |  | > 100 µM |  | > 100 µM |  | > 100 µM |  | > 100 µM |  | > 100 µM |  | > 100 µM
